{"source": "paper PMC9304416", "about": "“A phosphite-based screening platform for identification of enzymes favoring nonnatural cofactors” (Scientific Reports, 2022)", "molecular_target": "T1, ME (malic enzyme) (Escherichia coli, UniProt P26616, L301R/Q392C, form not given)", "T1 construct": "gene maeA; C-terminal His6 tag kept; expressed in E. coli BW14329 from pTrc99K; crude lysate", "T1 sequence (P26616 whole entry L301R/Q392C, form open)": "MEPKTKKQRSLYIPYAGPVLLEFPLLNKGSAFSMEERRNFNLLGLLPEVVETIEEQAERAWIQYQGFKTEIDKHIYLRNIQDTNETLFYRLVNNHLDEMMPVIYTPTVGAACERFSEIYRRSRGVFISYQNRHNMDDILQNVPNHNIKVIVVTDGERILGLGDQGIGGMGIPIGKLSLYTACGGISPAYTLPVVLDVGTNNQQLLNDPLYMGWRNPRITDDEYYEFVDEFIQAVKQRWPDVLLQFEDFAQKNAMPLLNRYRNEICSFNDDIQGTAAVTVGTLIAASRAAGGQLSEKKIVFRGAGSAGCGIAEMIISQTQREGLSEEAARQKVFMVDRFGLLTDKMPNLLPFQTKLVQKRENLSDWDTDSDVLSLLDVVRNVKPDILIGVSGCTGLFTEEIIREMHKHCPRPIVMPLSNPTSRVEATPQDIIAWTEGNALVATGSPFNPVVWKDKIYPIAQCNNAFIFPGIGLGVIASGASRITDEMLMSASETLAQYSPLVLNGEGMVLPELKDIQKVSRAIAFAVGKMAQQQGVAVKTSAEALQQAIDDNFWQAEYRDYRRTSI", "test": "formazan (MTT/phenazine ethosulfate) absorbance at […] nm, crude lysate", "format": "biochemical", "conditions": "0.05 mM NCD; 5.0 mM L-malate; 50 mM HEPES pH 7.5; 10 mM MgCl2; room temperature"}
{"smiles": "NC(=O)c1ccc[n+]([C@@H]2O[C@H](COP(=O)(O)OP(=O)(O)OC[C@H]3O[C@@H](n4ccc(N)nc4=O)[C@H](O)[C@@H]3O)[C@@H](O)[C@H]2O)c1", "note": "[NCD]", "values": [{"measurement": "formazan (MTT/phenazine ethosulfate) absorbance at 570 nm, crude lysate", "value": "ME* or ME-NCD, activity of ME* or ME toward NCD"}]}
